This is an account of results in US8242152B2, “Use of 4-[(4-thiazolyl)phenoxy]alkoxy-benzamidine derivatives for the prophylaxis and treatment of osteoporosis” (Dong Wha Pharmaceutical Co., Ltd., priority 2001, dated 2012).

Assay [1] relates to rabbit osteoclasts. The assay can be described thus: TRAP(+) MNC formation in isolated rabbit osteoclast cultures, single treatment without LTB4 (Example 6). As to conditions: for number of TRAP(+) MNCs / osteoclast formation: 1000 nM, single treatment without LTB4, dentine slices, 48 hrs (FIG. 3-8). Format: cell-based. The procedure: (§1) Rabbit osteoclasts were isolated as described by Victoria Tai's report (Doctoral Dissertation, 1997, Graduate Department of Pharmacology, University of Toronto) and Rraser P. Coxon et al. (Methods in Molecular Medicine, vol 80). Neonatal rabbits (New Zealand White) were sacrificed by ether-inhaling method under a hood. The removed long bones were dissected free of attached soft tissues and placed into ice-cold PBS. The long bones were cut longitudinally and mechanically curetted in 10 ml medium 199 with antibiotics (10 ug/ml penicillin G and 50 ug/ml gentamycin) in a glass Petri dish. Each bone was curetted with a scalpel blade and was finely minced. The fragments were then vigorously agitated by pipetting up and down using a pasteur pipette and vortex-mixed for 30 seconds. The fragments were allowed to settle and the cell suspension was then transferred to a 50 ml tube and the previous step repeated three times to a total volume of 40 ml. The bone fragments were allowed to settle (>1 min). The cell suspension was then transferred to a new 50 ml tube, passed through a 40 um cell strainer and centrifuged at 200 g for 8 minutes. The supernatant was removed and the pellet was immediately resuspended in α-MEM with 2% FBS (bicarbonate buffered medium).
(§2) 40 uL droplets of osteoclast-containing suspensions were plated onto 60 mm tissue culture plastic dishes or on dentine slices in 96-well microtiter plates in 2% medium. The cells were allowed ninety minutes for attachment before the addition of 2 mL α-MEM with 2% FBS. After 24 hr culture, cells were washed to remove non-adherent cells and replaced with fresh medium as describes below.
After 24 hr in culture, the medium was replaced with fresh medium containing control, LTB4 receptor antagonists (1000 nM), DW1350 (10, 100 and 1000 nM) or LTB4 (100 nM) and the cultures were continued for an additional 48 hrs.
(§3) All cells were cultured at 37° C. in a humidified atmosphere of 95% air and 5% CO2 in bicarbonate buffered medium at pH 7.4.
(§4) Differentiated osteoclasts are multinucleated cells and have specific enzyme activity, such as ‘tartrate-resistant acid phosphatase (TRAP)’. Therefore, Osteoclast formation was determined by counting the number of TRAP-positive multinucleated cells (TRAP(+) MNCs).
(§5) After culture, the cells were fixed with 10% neutral buffered formalin for 30 min at 4° C., washed twice in distilled water and stained for TRAP activity by incubating with substrate. The number of TRAP(+)MNC with more than 2 nuclei was counted under photomicroscope.
(§6) Results were expressed as mean number of TRAP(+)MNC±SD of All experiments were done at least twice. Statistical analysis was performed for each experiment by student t-test.

The target in assay [2] is LTB4 receptor (Homo sapiens, UniProt Q15722). To be noted: cited from earlier work.
Assay [3] has as its system LTB4-induced osteoclast formation. Kind of assay: LTB4-induced osteoclast formation in rabbit osteoclast cultures, co-treatment and pre-treatment (Example 6). The assay is classed as cell-based. Here is the method:
as §1, §2
After 24 hr in culture, the medium was removed and replaced with fresh medium containing both LTB4 receptor antagonist (1000 nM) and LTB4 (100 nM) or both DW1350 (1000 nM) and LTB4 (100 nM). The cultures were continued for an additional 48 hrs.
After 6 hrs in culture, the medium was removed and cells were pretreated with LTB4 receptor antagonists such as LY292728 (Journal of Medical Chemistry, 1995, vol. 38, No. 10, p 4411-4432), SB209247 (Journal of Medical Chemistry, 1996, vol. 39, No. 19, p 3837-3841), LY293111(Journal of Medical Chemistry, 1995, vol. 38, No. 10, p 4411-4432) and LY223982 (Journal of Medical Chemistry, 1993, vol. 36, p 3333-3340) or DW1350-containing medium and culture continued for 18 hrs. The medium was replaced with medium containing both LTB4 receptor antagonist and LTB4 or DW1350 and LTB4. The cultures were continued for an additional 48 hrs.
as §3, §4, §5, §6

Where [4] appears, read: 1000 nM in the presence of 100 nM LTB4 (FIGS. 6˜8), regimen not separated.

“And” between values parts separate entries of the source, which are not always exact repeats. Equal values may be shown once.

Sequence of LTB4 receptor (Q15722 whole entry): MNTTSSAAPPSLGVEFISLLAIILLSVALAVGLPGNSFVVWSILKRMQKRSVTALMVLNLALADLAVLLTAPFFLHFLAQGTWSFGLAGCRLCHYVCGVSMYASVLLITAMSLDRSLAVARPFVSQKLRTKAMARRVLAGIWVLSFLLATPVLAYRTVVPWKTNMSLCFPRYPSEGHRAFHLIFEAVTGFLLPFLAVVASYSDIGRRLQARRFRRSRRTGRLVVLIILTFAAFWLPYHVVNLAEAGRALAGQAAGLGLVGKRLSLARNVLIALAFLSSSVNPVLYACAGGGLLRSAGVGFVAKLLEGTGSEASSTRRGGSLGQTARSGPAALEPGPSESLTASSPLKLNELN

For `CCCCC/C=C\C[C@@H](O)/C=C/C=C/C=C\[C@@H](O)CCCC(=O)O` [LTB4, leukotriene-B4], in assay [1] (100 nM LTB4, 48 hours, dentin slices), the “increase in the number of TRAP-positive osteoclasts compared to the control group” value was 30˜40% and 40%.

With `COc1ccc(/C=C/CCCCOc2ccc(C(=O)c3cccc(C(=O)O)c3)cc2CCC(=O)O)cc1` [LY223982], the IC50 (in general, the point on the concentration scale where inhibition reaches its midpoint) in assay [2] is 13 nM. Moreover, the “number of TRAP(+) MNCs / osteoclast formation” value in assay [1] was “did not change the number of osteoclasts”. Further, the LTB4-stimulated osteoclast formation entry in assay [3] (setting [4]) is “significantly abolished LTB4-stimulated osteoclast formation”.

For the compound `CCc1cc(-c2ccc(F)cc2)c(O)cc1OCCCOc1ccc2c(=O)c3cc(C(=O)O)ccc3oc2c1CCC(=O)O` [LY292728], the Ki (commonly the equilibrium dissociation constant of an inhibitor or competing ligand from its target) in assay [2] was 0.5 nM. Moreover, the “number of TRAP(+) MNCs / osteoclast formation” value in assay [1] was “no significant effect on osteoclast formation compared to the control culture”. In addition, in assay [1] (10˜1000 nM, 48 hours, tissue culture dish, single treatment (FIG. 1, 2)), the “number of TRAP(+) MNCs” value is on record as “no significant effect on the number of osteoclasts”. The LTB4-stimulated osteoclast formation entry in assay [3] (pre-treatment 18 hrs, then 1000 nM compound + 100 nM LTB4 for 48 hrs, dentin slices) was “appeared to suppress the formation of osteoclasts”; in assay [3] (simultaneous treatment: 1000 nM compound + 100 nM LTB4, 48 hrs, dentin slices), “significantly abolished osteoclast formation increased by LTB4”.

For the compound `CCCc1c(OCCCOc2cc(O)c(-c3ccc(F)cc3)cc2CC)cccc1Oc1ccccc1C(=O)O` [LY293111], the Ki in assay [2] is 25 nM. The “number of TRAP(+) MNCs / osteoclast formation” value in assay [1] is reported as “did not change the number of osteoclasts”. Also, the LTB4-stimulated osteoclast formation result in assay [3] (setting [4]) is listed as “significantly abolished LTB4-stimulated osteoclast formation”.

As to `O=C(O)/C=C/c1nc(CSc2c(Cl)cccc2Cl)ccc1OCCc1ccccc1` [SB209247], the “number of TRAP(+) MNCs / osteoclast formation” value in assay [1] was “did not change the number of osteoclasts”. In assay [3] (setting [4]), the LTB4-stimulated osteoclast formation entry is recorded as “significantly abolished LTB4-stimulated osteoclast formation”.
